Reference: patent publication US5612188A, “Automated, multicompartmental cell culture system” (Cornell Research Foundation, Inc., priority 1994, dated 1997)
Read-outs that look alike come from different tables or passages of the source.

How the values were obtained:
[1] = test system: lung GSH; details: after BSO, before 200 mg/kg naphthalene; cited from earlier work
[2] = test system: liver GSH; details: cited from earlier work
[3] = Biotransformation of naphthalene by mouse lung microsomes; type: in vitro ADME; details: mouse, lung microsomes
Procedure: (§1) Biotransformation rates of naphthalene at initial concentrations of 0.05, 0.1 and 1.0 mM by lung and liver microsomes have been determined (O'Brien, et al. (1985), supra, Buckpitt, A. R., Bahnson, L. S., and Franklin, R. B., "Hepatic and Pulmonary Microsomal Metabolism of Naphthalene to Glutathione Adducts: Factors Affecting the Relative Rates of Conjugate Formation", J. Pharmacol. Exp. Ther. 231: 291-300 (1984), which is hereby incorporated by reference), and Buckpitt, A. R., Castagnoli, Jr., N., Nelson, et al., "Stereoselectivity of Naphthalene Epoxidation by Mouse, Rat, and Hamster Pulmonary, Hepatic and Renal Microsomal Enzymes", Drug Metab. Dispos. 15: 491-498 (1987), which is hereby incorporated by reference). Assuming Michaelis-Menten kinetics, fitting s/v vs s was used to provide Vmax and Km values. Since mouse liver produces the 1R,2S- and 1S,2R-naphthalene oxide enantiomers in equal amounts at all substrate concentrations (Buckpitt, et al., 1987, supra), the calculated Vmax was divided by two to give the production rates for each enantiomer.
(§2) For the lung, the biotransformation of naphthalene was modeled as the sum of two separate reactions, each producing a different enantiomer, with the Vmax's summing to the value calculated as described above.

[4] = test system: mouse lung microsomes; experiment: as above; type: in vitro ADME
Procedure: as §1, §2

[5] = Biotransformation of naphthalene by mouse liver microsomes; type: in vitro ADME; details: mouse, liver microsomes; read-out: Km, N to 1R, 2S NO
Procedure: as §1

[6] = test system: mouse liver microsomes; experiment: as above; type: in vitro ADME; details: Mouse, Liver
Procedure: as §1

[7] = Biotransformation of naphthalene by rat lung microsomes; type: in vitro ADME
From the text: (§3) Determination of Vmax's and Km's for naphthalene oxide production and Vmax's for GSH conjugates and dihydrodiol production in rat microsomes were done in the same way as for the mouse. Sources of data were Buckpitt, et al, 1987, supra, Hesse, S. and Mezger, M., "Involvement of Phenolic Metabolites in the Irreversible Protein-binding of Aromatic Hydrocarbons: Reactive Metabolites of [^14 C]-naphthalene and [^14 C] 1-naphthol Formed by Rat Liver Microsomas", Mol. Pharmacol. 16: 667-675 (1979) which is hereby incorporated by reference, O'Brien et al., 1985, supra, van Bladeren et al., 1985, supra, and Yost, G. S., Buckpitt, A. R., Roth, R. A., and McLemore, T. L., "Mechanisms of Lung Injury by Systematically Administered Chemicals", Toxicol. Appl. Pharmacol. 101: 179-195 (1989), which is hereby incorporated by reference.

[8] = Biotransformation of naphthalene by rat liver microsomes; type: in vitro ADME
From the text: as §3

[9] = test system: CD-1 mice; details: po, cited from earlier work
[10] = test system: Sherman rats; details: po, cited from earlier work
[11] = test system: Clara cells of the lung; details: similar binding levels in lung and liver; cited from earlier work
[12] = test system: mouse lung microsomes; details: cited from earlier work
[13] = test system: mouse liver microsomes; details: cited from earlier work
[14] = test system: mouse liver microsomes; details: Observed; 1 mM naphthalene, 5 mM GSH; cited from earlier work
[15] = test system: liver GSH; details: 200 mg/kg oral, rat, 6 1/2 hours; observed; cited from earlier work
[16] = test system: mouse liver; details: 200 mg/kg naphthalene, cited from earlier work
[17] = test system: mouse lung; details: cited from earlier work; for Covalent binding in the lung: Male Swiss-Webster mouse, ip
[18] = Lung, Experiment, 0.1 mM naphthalene, 6 minutes
[19] = [N] 1.0 mM, Buckpitt et al., 1987
[20] = Liver, Experiment, 0.1 mM naphthalene, 6 minutes

Q: For `CCCCS(=N)(=O)CCC(N)C(=O)O` (stereo not shown) [BSO, buthionine sulfoximine], which “GSH level in lung, percent of control” value [1] is on record?
A: 86%

Q: And the “GSH level in liver, percent of control” value ([2]; after BSO, before 200 mg/kg naphthalene)?
A: 35%

Q: And the “hepatic and pulmonary GSH” value ([2]; mice pretreated with BSO)?
A: hepatic and pulmonary GSH are depleted

Q: And the “GSH depletion, liver versus lung” value ([2]; treatment of mice with BSO)?
A: depletes GSH in the liver more than in the lung

Q: Which results are given for `c1ccc2ccccc2c1` [naphthalene]?
A: Km ([3]; read-out: Km, N to 1R, 2S NO): 100 µM; Km ([3]; read-out: Km, N to 1S, 2R NO): 400 µM; Vmax, N to 1R, 2S NO [4]: 9.0 nmol/mg/min; Vmax, N to 1S, 2R NO [4]: 1.1 nmol/mg/min; Km [5]: 307 µM; Vmax, N to 1R, 2S NO [6]: 6.95 nmol/mg/min; Vmax, N to 1S, 2R NO [6]: 6.95 nmol/mg/min; Km ([7]; read-out: Km, N to 1R, 2S NO): 400 µM; Km ([7]; read-out: Km, N to 1S, 2R NO): 1540 µM; Km ([8]; read-out: Km, N to 1R, 2S NO): 400 µM; Km ([8]; read-out: Km, N to 1S, 2R NO): 800 µM; LD50 ([9]; female CD-1 mice): 710 mg/kg; LD50 ([9]; male CD-1 mice): 533 mg/kg; LD50 ([10]; female Sherman rats): 2400 mg/kg; LD50 ([10]; male Sherman rats): 2200 mg/kg; site of toxicity [11]: toxicity is limited to the Clara cells of the lung; Covalently bound [12, 18]: 7.4 nmol/mg; Diol formed [12, 18]: 4.2 nmol/mg; NOH formed [12, 18]: 21.2 nmol/mg; observed ratio of conjugates of 1R, 2S and 1S, 2R naphthalene oxide ([12]; [N] 0.015 mM, Buckpitt and Franklin, 1989): 30; observed v ([12]; [N] 0.05 mM, O'Brien et al., 1985): 1.33 nanomoles of product/mg micros; observed v ([12]; [N] 0.10 mM, Buckpitt et al., 1984): 6.01 nanomoles of product/mg micros; observed ratio of conjugates of 1R, 2S and 1S, 2R naphthalene oxide [12, 19]: 10; observed v [12, 19]: 8.3 nanomoles of product/mg micros; Covalently bound [13, 20]: 5.8 nmol/mg; Diol formed [13, 20]: 11.9 nmol/mg; NOH formed [13, 20]: 3.5 nmol/mg; 1R,2S- and 1S,2R-naphthalene oxide enantiomers produced ([13]; mouse liver, all substrate concentrations): equal amounts; 1,2 dihydrodiol formation rate [14]: 2.43 nmol/mg/min; Conjugate 2 formation rate [14]: 3.64 nmol/mg/min; Conjugates 1 and 3 formation rate [14]: 3.56 nmol/mg/min; liver GSH, percent of the initial concentration [15]: 17%; observed binding level in liver ([16]; with BSO pretreatment): 1069 pmol/mg; observed binding level in liver ([16]; without BSO): 255 pmol/mg; experimental covalent binding in lung ([17]; 200 mg/kg naphthalene, with BSO pretreatment): 411 pmol/mg; experimental covalent binding in lung ([17]; 200 mg/kg naphthalene, without BSO): 137 pmol/mg; experimental increase in lung covalent binding by BSO ([17]; 200 mg/kg naphthalene): 3.0 factor; Covalent binding in the lung ([17]; 300 mg/kg): 675 pmol/mg; Covalent binding in the lung ([17]; 400 mg/kg): 912 pmol/mg
